Data set [1] is described as follows: Gastric lesions and toxicity in rodents. The following applies: in vivo. From the text: This may be related to the absence of use of toxic ingredients such as sodium azide or potassium azide.
Data set [2] is described as follows: Bioavailability of CTO given orally as solid in capsule or as liquid in PEG-400; CAI in plasma by HPLC/MS. To be noted: for Cmax / half-life: po; for Cmax: 685 mg/kg; for concentration at 1 h: measured as CAI, read-out: Plasma concentration after 1 hr. The data set is classed as in vivo, dogs. Here is the method: The bioavailability of CTO (base:acid, 0.7:1.3) was determined by administering a single dose 685 mg/kg by capsule (Group 1) or by oral gavage in PEG400 (Group 2). Two dogs (1F/1M) were used in each group. Blood samples were collected at 0, 1, 2, 4, 8, 12, 24, 48, 72, and 92 hours. CAI was measured by HPLC/MS.

For data set [3], the system named is HT29 human colon tumor xenografts. As to the kind of experiment: Anticancer activity in s.c.-implanted HT29 human colon tumor xenografts. In kind it is in vivo, mice. The following applies: CTO 343 mg/kg/day, days 13-26; measured at 41 days; control 1436 mm^3; p=0.0050 vs control. Here is the method: The effect of CTO M.W. of 580.8 and CAI M.W. of 424.6+Orotic Acid M.W. of 156.1, was studied in s.c.-implanted HT29 human colon tumor xenografts in male, athymic NCr-n u/nu mice. 6 week old mice were implanted with HT29 fragments and 13 days later were sorted in […] groups of ten. For the next 14 days (13-26 days), Group 1 control (C) received the vehicle; Group 2=343 mg/kg/dose; Group 3=240 mg/kg/day CAI+103 mg/kg/day orotic acid. At 41 days, the mean tumor volume (mm^3) was measured as shown below: • Group 1 (Control)=1436 mm^3 • Group 2 (CTO343 mg/kg/day)=864 mm^3 (p=0.0050, Gr2 vs Gr 1) • Group 3 (CAI […]+Orotic Acid 103 mg/kg/day)=1268 mm^3 (p=0.2706,Gr 3 vs Gr 1). […] However, CAI+Orotic acid formulation did show some tumor inhibition.

Data set [4] in a line: CTO concentration (as CAI) in brain tissue after oral dosing. In kind it is in vivo, mice. To be noted: mouse, eight hours after treatment, read-out: CAI levels in brain tissue. Here is the method: CTO was given orally (in PEG400) to six week old mice sorted in two Groups of 6. Two doses were administered-Group 1=513 mg/kg; Group 2=342 mg/kg. Eight hours after treatment with CTO, the mice were euthanized for measurement of CTO concentration (as CAI) in brain tissue.

Data set [5] is classed as in vivo. The following applies: dogs, PO, 175, 350, 1025 mg/kg/day, after 28 days.
The subject of data set [6] is Dunning R-3227-AT-1 prostate cancer model. To be noted: rats; compared with equivalent dose of L651582; U.S. Pat. No. 5,912,346; cited from earlier work.

Where two headings read alike, the source gives them in different places.

Data on three molecules can be found in patent US8912223B2, “Compositions and processes for preparing 5-amino or substituted amino 1,2,3-triazoles and triazoles orotate formulations” (priority 2013, dated 2014).

A word on the bioavailability: it is the share of a dose that reaches the circulation, judged against a reference dose that is usually intravenous. One may read the Cmax as the highest concentration seen after dosing. As a reminder, the half-life is how long it takes for the measured level to halve. The low end stands for fast loss, the high end for slow loss.

In the case of `NC(=O)c1nnn(Cc2cc(Cl)c(C(=O)c3ccc(Cl)cc3)c(Cl)c2)c1N` [CAI, 5-Amino-1-(4-(4-chlorobenzoyl)-3,5-dichlorobenzyl)-1,2,3-triazole-4-carboxamide], the “gastric lesions and toxicity” value in data set [1] was “less gastric lesions and toxicity”.

On to `NC(=O)c1nnn(Cc2cc(Cl)c(C(=O)c3ccc(Cl)cc3)c(Cl)c2)c1N` [CTO, 5-Amino-1-(4-(4-chlorobenzoyl)-3,5-dichlorobenzyl)-1,2,3-triazole-4-carboxamide, compound with orotic acid], for which the bioavailability in data set [2] (both sexes, dog, plasma, oral gavage in PEG400, single dose 685 mg/kg, dogs, read-out: Bioavailability relative to Group 1 (capsule, 100%)) worked out at 81.8%. The AUC in data set [2] (capsule, single dose 685 mg/kg, female dog) came to 277 µg/mL; in data set [2] (capsule, single dose 685 mg/kg, male dog) it was 326 µg/mL. The Cmax in data set [2] (female, dog, plasma, capsule, single dose 685 mg/kg, female dog) turned out to be 7950 ng/mL; in data set [2] (female, dog, plasma, oral gavage in PEG400, single dose 685 mg/kg, female dog), 5350 ng/mL; in data set [2] (male, dog, plasma, capsule, single dose 685 mg/kg, male dog), 5800 ng/mL; in data set [2] (male, dog, plasma, oral gavage in PEG400, single dose 685 mg/kg, male dog) it was 6630 ng/mL. The concentration at 1 h in data set [2] (plasma, oral, capsule, single dose 685 mg/kg, female dog) worked out at 174 ng/mL; in data set [2] (plasma, oral, capsule, single dose 685 mg/kg, male dog), 155 ng/mL; in data set [2] (plasma, oral gavage in PEG400, single dose 685 mg/kg, female dog) it was 570 ng/mL; in data set [2] (plasma, oral gavage in PEG400, single dose 685 mg/kg, male dog), 511 ng/mL. Besides, the half-life in data set [2] (plasma, capsule, single dose 685 mg/kg, female dog) was 22.7 h; in data set [2] (plasma, capsule, single dose 685 mg/kg, male dog), 18 h. Further, the mean tumor volume in data set [3] was 864 mm^3. The concentration at 8 h turned out to be 11000 ± 1700 ng/g in data set [4] (CTO 342 mg/kg orally in PEG400, mice) and 15200 ± 2370 ng/g in data set [4] (CTO 513 mg/kg orally in PEG400, mice). Further, in data set [5], the deaths result is listed as “no deaths occurred”.

On to `NC(=O)c1nnn(Cc2cc(Cl)c(C(=O)c3ccc(Cl)cc3)c(Cl)c2)c1N.O=C(O)c1cc(=O)[nH]c(=O)[nH]1` [L651582 Orotate], for which, in data set [6], the antitumor activity entry is reported as “improved antitumor activity”.
